# Key:
# [1] = Maximum absorption wavelength in chloroform (Cary 5000 spectrophotometer); type: physicochemical; settings: wavelength range 400 to 800 nm
# Description: In addition, the maximum absorption wavelength was obtained by dissolving 50 mg of each compound in 200 mL of chloroform, adding chloroform to 2 mL of this solution so as to be 200 mL, and measuring the absorbance of the solution in a wavelength range of 400 to 800 nm using Cary 5000 UV-Vis-NIR spectrophotometer (manufactured by Agilent Technologies, Inc.).
# [2] = Solubility in PGMEA at 25° C. (visual check of insoluble matters); type: physicochemical
# Text: The evaluation standard is as follows.
Maximum absorption wavelength [1] [nm],Solubility [2],"solubility at 15 min ([2]; organic solvent or mixture, thermodynamic from solid) [µg/mL]",Structure (SMILES)
685,A (solubility is 20 mg/L or less.),–,O=C1C(=C2C=CC(=[N+](c3ccccc3-c3ccccc3)c3ccccc3[N+](=O)[O-])C=C2O)C([O-])=C1c1ccc(N(c2ccccc2-c2ccccc2)c2ccccc2[N+](=O)[O-])cc1O [SQ-108]
670,A (solubility is 20 mg/L or less.),–,CC(=O)Nc1ccc(N(c2ccc(C3=C([O-])C(=C4C=CC(=[N+](c5ccc(NC(C)=O)cc5)c5cccc6ccccc56)C=C4O)C3=O)c(O)c2)c2cccc3ccccc23)cc1 [SQ-19]
660,A (solubility is 20 mg/L or less.),–,N#Cc1ccc(N(c2ccc(C3=C([O-])C(=C4C=CC(=[N+](c5ccc(C#N)cc5)c5cccc6ccccc56)C=C4O)C3=O)c(O)c2)c2cccc3ccccc23)cc1 [SQ-16]
665,A (solubility is 20 mg/L or less.),–,O=C1C(=C2C=CC(=[N+](c3ccc(Cl)cc3)c3cccc4ccccc34)C=C2O)C([O-])=C1c1ccc(N(c2ccc(Cl)cc2)c2cccc3ccccc23)cc1O [SQ-12]
670,A (solubility is 20 mg/L or less.),–,O=C1C(=C2C(O)=CC(=[N+](c3cccc4ccccc34)c3cccc4ccccc34)C=C2O)C([O-])=C1c1c(O)cc(N(c2cccc3ccccc23)c2cccc3ccccc23)cc1O [SQ-77]
665,A (solubility is 20 mg/L or less.),–,O=C1C(=C2C(O)=CC(=[N+](c3ccc(Cl)cc3)c3cccc4ccccc34)C=C2O)C([O-])=C1c1c(O)cc(N(c2ccc(Cl)cc2)c2cccc3ccccc23)cc1O [SQ-74]
675,A (solubility is 20 mg/L or less.),–,CSc1ccc(N(c2ccc(C3=C([O-])C(=C4C=CC(=[N+](c5ccc(SC)cc5)c5cccc6ccccc56)C=C4O)C3=O)c(O)c2)c2cccc3ccccc23)cc1 [SQ-17]
675,A (solubility is 20 mg/L or less.),–,O=C1C(=C2C=CC(=[N+](c3ccccc3-c3ccccc3)c3ccccc3-c3ccccc3)C=C2O)C([O-])=C1c1ccc(N(c2ccccc2-c2ccccc2)c2ccccc2-c2ccccc2)cc1O [SQ-110]
680,A (solubility is 20 mg/L or less.),–,O=C1C(=C2C=CC(=[N+](c3cccc4ccccc34)c3cccc4ccccc34)C=C2O)C([O-])=C1c1ccc(N(c2cccc3ccccc23)c2cccc3ccccc23)cc1O [SQ-29]
655,–,> 30,"CCCCN(CCCC)c1cc(O)c(C2=C([O-])C(=C3C(O)=CC(=[N+](CCCC)CCCC)C=C3O)C2=O)c(O)c1 [SQ-R1, reference compound]"
670,A (solubility is 20 mg/L or less.),–,O=C1C(=C2C=CC(=[N+](c3ccccc3)c3cccc4ccccc34)C=C2O)C([O-])=C1c1ccc(N(c2ccccc2)c2cccc3ccccc23)cc1O [SQ-1]
695,A (solubility is 20 mg/L or less.),–,O=C1C(=C2C(O)=CC(=[N+](c3ccccc3)c3cccc4ccccc34)c3ccccc32)C([O-])=C1c1c(O)cc(N(c2ccccc2)c2cccc3ccccc23)c2ccccc12 [SQ-104]
690,A (solubility is 20 mg/L or less.),–,CCOC1=CC(=[N+](c2ccccc2)c2cccc3ccccc23)C=CC1=C1C(=O)C(c2ccc(N(c3ccccc3)c3cccc4ccccc34)cc2OCC)=C1[O-] [SQ-101]
685,A (solubility is 20 mg/L or less.),–,CN(C)c1ccc(N(c2ccc(C3=C([O-])C(=C4C=CC(=[N+](c5ccc(N(C)C)cc5)c5cccc6ccccc56)C=C4O)C3=O)c(O)c2)c2cccc3ccccc23)cc1 [SQ-18]
690,A (solubility is 20 mg/L or less.),–,O=C1C(=C2C(O)=CC(=[N+](c3ccccc3)c3ccc4ccccc4c3)C=C2O)C([O-])=C1c1c(O)cc(N(c2ccccc2)c2ccc3ccccc3c2)cc1O [SQ-96]

Structure (SMILES),Maximum absorption wavelength [1] [nm],Solubility [2],"solubility at 15 min ([2]; organic solvent or mixture, thermodynamic from solid) [µg/mL]"
CCc1ccc(N(c2ccc(C3=C([O-])C(=C4C=CC(=[N+](c5ccc(CC)cc5)c5cccc6ccccc56)C=C4O)C3=O)c(O)c2)c2cccc3ccccc23)cc1 [SQ-13],675,B (solubility is more than 20 mg/L and 25 mg or less.),–
Cc1ccc(N(c2ccc(C3=C([O-])C(=C4C=CC(=[N+](c5ccc(C)cc5C)c5cccc6ccccc56)C=C4O)C3=O)c(O)c2)c2cccc3ccccc23)c(C)c1 [SQ-7],680,C (solubility is more than 25 mg/L and 30 mg or less.),–
Cc1ccc(N(c2ccc(C3=C([O-])C(=C4C=CC(=[N+](c5ccc(C)cc5)c5cccc6ccccc56)C=C4O)C3=O)c(O)c2)c2cccc3ccccc23)cc1 [SQ-2],675,B (solubility is more than 20 mg/L and 25 mg or less.),–
CC(C)(C)c1ccc(N(c2ccc(C3=C([O-])C(=C4C=CC(=[N+](c5ccc(C(C)(C)C)cc5)c5cccc6ccccc56)C=C4O)C3=O)c(O)c2)c2cccc3ccccc23)cc1 [SQ-14],670,C (solubility is more than 25 mg/L and 30 mg or less.),–
Cc1cccc(N(c2ccc(C3=C([O-])C(=C4C=CC(=[N+](c5cccc(C)c5)c5cccc6ccccc56)C=C4O)C3=O)c(O)c2)c2cccc3ccccc23)c1 [SQ-3],675,B (solubility is more than 20 mg/L and 25 mg or less.),–
CCOc1ccc(N(c2ccc(C3=C([O-])C(=C4C=CC(=[N+](c5ccc(OCC)cc5)c5cccc6ccccc56)C=C4O)C3=O)c(O)c2)c2cccc3ccccc23)cc1 [SQ-15],680,B (solubility is more than 20 mg/L and 25 mg or less.),–
Cc1ccccc1N(c1ccc(C2=C([O-])C(=C3C=CC(=[N+](c4ccccc4C)c4cccc5ccccc45)C=C3O)C2=O)c(O)c1)c1cccc2ccccc12 [SQ-4],675,B (solubility is more than 20 mg/L and 25 mg or less.),–
O=C1C(=C2C=CC(=[N+](c3ccco3)c3cccc4ccccc34)C=C2O)C([O-])=C1c1ccc(N(c2ccco2)c2cccc3ccccc23)cc1O [SQ-25],665,B (solubility is more than 20 mg/L and 25 mg or less.),–
O=C1C(=C2C=CC(=[N+](c3ccccc3)c3cc(C(F)(F)F)cc(C(F)(F)F)c3)C=C2O)C([O-])=C1c1ccc(N(c2ccccc2)c2cc(C(F)(F)F)cc(C(F)(F)F)c2)cc1O [SQ-67],675,C (solubility is more than 25 mg/L and 30 mg or less.),–

# Source: US20210130617A1, “COLORING COMPOSITION, FILM, COLOR FILTER, METHOD FOR MANUFACTURING COLOR FILTER, SOLID-STATE IMAGING ELEMENT, AND IMAGE DISPLAY DEVICE” (FUJIFILM Corporation, priority 2018, published 2021)
